Where two headings read alike, the source gives them in different places. Where no end group is shown, it is not given here.
Columns and labels:
P. aeruginosa ATCC27853 = type: cell-based, Pseudomonas aeruginosa; conditions: for MBC P. aeruginosa ATCC27853: ATCC27853, 4 h; for MIC P. aeruginosa ATCC27853: ATCC27853, 24 h
Experimental: (§1) The antibacterial activity was evaluated using a standard MIC and MBC assay according to the National Committee for Clinical Laboratory Standards (NCCLS). MIC, MBC assay, and time-kill curves for the optimal peptide are provided in the Supplementary Materials.
(§2) Antimicrobial Activity Assays. The antibacterial activity of the peptides was determined using a method designed from the National Committee for Clinical Laboratory Standards (NCCLS) in the United States. All the strains used in the experiment are preserved in the laboratory. Briefly, log phase bacterial cells were diluted in MHB to a final concentration of 0.5-1x10^5 CFU/mL. Subsequently, 50μL of different concentrations of polypeptides were incubated with 50 μL of bacterial solution in sterile 96-well plates. In the minimum inhibitory concentration (MIC) assay, the plate was incubated at 37°C for 24 h, and the minimum inhibitory concentration (MIC) was determined by the absorbance at 492 nm of the microplate reader, and the minimum inhibitory concentration (MIC) inhibited 95% of bacteria grow. Determination of minimum bactericidal concentration: the plate was incubated at 37°C for 4 hours, 50 μL of the mixture was taken out of each well, diluted with an appropriate amount of PBS, smeared on the agar plate, and cultured overnight. Colonies were counted and the initial CFU/well was retrospectively calculated the following day. The lowest concentration of peptide that kills 99.9% of bacterial cells is the minimum bactericidal concentration (µM), Each test was replicated at least 3 times.

E. coli K88 = type: cell-based, Escherichia coli
Experimental: as §1
as §2, with “The lowest concentration of peptide that kills 99.9% of bacterial cells is the minimum bactericidal concentration (µM), Each test was replicated at least 3 times.” left out

Gram-positive bacteria = experiment: Geometric mean MIC and therapeutic index, Gram-positive; type: cell-based; conditions: geometric mean of the peptide MICs against Gram-positive strains
Experimental: as §1, §2

S. aureus ATCC 25923 = conditions: cited from earlier work
Experimental: (§3) PGLa, an amphibian 21-residue cationic AMP, with a net charge of +4, was found in the skin of the toad Xenopus laevis ([6]). The minimum inhibitory concentration (MIC) of PGLa against Escherichia coli 25922 and S. aureus 25923 were 10–50 μg/mL and 50–100 μg/mL, respectively ([6]). […] The rep ...

E. coli ATCC 25922 = conditions: cited from earlier work
Experimental: as §3

A. baumannii ATCC19606 = type: cell-based, Acinetobacter baumannii; conditions: for MBC A. baumannii ATCC19606: ATCC19606, 4 h; for MIC A. baumannii ATCC19606: ATCC19606, 24 h
Experimental: as §1, §2

S. aureus ATCC29213 = type: cell-based, Staphylococcus aureus; conditions: for MBC S. aureus ATCC29213: ATCC29213, 4 h; for MIC S. aureus ATCC29213: ATCC29213, 24 h
Experimental: as §1, §2

S. aureus Mu50 = type: cell-based, Staphylococcus aureus MRSA; conditions: for MBC S. aureus Mu50: Mu50, 4 h; for MIC S. aureus Mu50: Mu50, 24 h
Experimental: as §1, §2

all tested bacteria = experiment: Geometric mean MIC and therapeutic index, all strains; type: cell-based; conditions: for GMMIC All: geometric mean of the peptide MICs against all strains; for reduced antibacterial efficacy compared with DiPGLa-H: from MICs of Table 2
Experimental: as §1, §2

Gram-negative bacteria = experiment: Geometric mean MIC and therapeutic index, Gram-negative; type: cell-based; conditions: geometric mean of the peptide MICs against Gram-negative strains
Experimental: as §1, §2

E. coli ATCC25922 = type: cell-based, Escherichia coli; conditions: for MBC E. coli ATCC25922: ATCC25922, 4 h; for MIC E. coli ATCC25922: ATCC25922, 24 h
Experimental: as §1
as §2, with “[…],” for “the plate was incubated at 37°C for 24 h,”

S. aureus = conditions: cited from earlier work
Experimental: as §3

E. coli = conditions: cited from earlier work
Experimental: as §3

[1] = system: Acinetobacter nosocomial Ab113; conditions: cited from earlier work
Excerpt: (§4) To date, there is a lack of systematic comparative study on the bacteriostatic activity and biosafety of PGLa and its variants, which precludes the determination of the variant with the highest potential for application. It has been more than 30 years since the discovery of PGLa in 1983 to the recent discovery of new PGLa-derived peptides.

Helicobacter pylori = conditions: cited from earlier work
Excerpt: as §4

[2] = system: E. coli K88 inner membrane; experiment: Inner membrane integrity assay (PI); type: cell-based, Escherichia coli; conditions: 4 µM, 16 µM and 64 µM peptide
Experimental: (§5) The outer and inner membrane integrity of bacterial cells treated with peptides was assessed using NPN and PI staining, respectively. Full details are provided in the Supplementary Materials.
Inner membrane integrity assay. E. coli K88 cells were washed and resuspended in 0.01 mol l−1 of PBS (pH 7.4) to obtain an OD600 of 0.5, followed by the addition of 10 nmol l−1 of PI (Thermo Fisher Scientific, catalogue no. P1304MP) in the presence of […]. After incubation for 30 min, fluorescence was measured with the excitation wavelength at 535 nm and emission wavelength at 615 nm.

[3] = system: E. coli K88 outer membrane; experiment: Outer membrane integrity assay (NPN uptake); type: cell-based, Escherichia coli; conditions: 4 µM peptide; relative to 10 µg/mL polymyxin B = 100%
Experimental: as §5
Membrane permeabilization. Outer membrane integrity assay. The fluorescent probe NPN (Sigma-Aldrich, catalog no. 104043, ≥98%) was used to assess the outer membrane integrity of DiPGLa-H or mucin-treated E. coli K88. Briefly, log-medium E. coli K88 cells (OD600 = 0.2) were incubated with NPN (10 μM) in 5 mM HEPES buffer (pH 7.4, containing 5 mM glucose) for 30 min, and background fluorescence was recorded for subtraction. (excitation λ = 350 nm, emission λ = 420 nm) using a microplate reader (Varioskan Flash; Thermo, America). Subsequently, 100 μL of cell suspension was mixed with an equal volume of peptide solutions ranging in concentration from 4 to 64 μM in a sterile 96-well black plate. Fluorescence was recorded over time until no further increase in fluorescence was detected. Each test was performed independently, in duplicate, with three biological replicates, and results were converted to percent NPN uptake using the equation. NPN uptake (%) = (Fobs – Fbuffer)/ (Fpositive – Fbuffer) ×100%.
where Fobs is the observed fluorescence at a given peptide concentration, Fbuffer is the fluorescence of the buffer, and Fpositive is the fluorescence of NPN with microbial cells upon addition of 10 μg/mL polymyxin B (Sigma), which was used as a positive control because of its strong outer membrane-permeabilizing property. Untreated cell suspension served as the negative control.

Pseudomonas aeruginosa = conditions: cited from earlier work
Excerpt: as §4

MRSA = conditions: cited from earlier work
Excerpt: as §4

[4] = first of two independent studies
[5] = second of two independent studies

Substance	MBC P. aeruginosa ATCC27853 (P. aeruginosa ATCC27853)	MIC P. aeruginosa ATCC27853 (P. aeruginosa ATCC27853)	GMMIC Gram-positive (Gram-positive bacteria)	MBC A. baumannii ATCC19606 (A. baumannii ATCC19606)	MIC A. baumannii ATCC19606 (A. baumannii ATCC19606)	MBC S. aureus ATCC29213 (S. aureus ATCC29213)	MIC S. aureus ATCC29213 (S. aureus ATCC29213)	MBC S. aureus Mu50 (S. aureus Mu50)	MIC S. aureus Mu50 (S. aureus Mu50)	GMMIC All (all tested bacteria)	GMMIC Gram-negative (Gram-negative bacteria)	MBC E. coli ATCC25922 (E. coli ATCC25922)	MIC E. coli ATCC25922 (E. coli ATCC25922)	reduced antibacterial efficacy compared with DiPGLa-H (all tested bacteria)	further results
GMASKAGAIAGKIAKVALKAL-NH2 (C-terminus assumed) [PGLa]	64 µM	64 µM	64 µM	16 µM	16 µM	64 µM	64 µM	>64 (>64) µM	>64 (>64) µM	45.25 µM	38.05 µM	> 64 µM	> 64 µM	–	MIC E. coli K88 (E. coli K88; lowest concentration inhibiting 95% of growth, MHB, 0.5-1x10^5 CFU/mL, 37°C 24 h, absorbance 492 nm, three independent experiments): 32 µM; MBC E. coli K88 (E. coli K88; lowest concentration killing >99.9% of cells, 37°C 4 h, plating, colony count, three independent trials): 64 µM; MIC S. aureus 25923 (S. aureus ATCC 25923): 50 to 100 µg/mL; MIC E. coli 25922 (E. coli ATCC 25922): 10 to 50 µg/mL
GMASKAGSVLGKVAKVALKAAL-NH2 (C-terminus assumed) [PGLa-AM1]	> 64 µM	64 µM	64 µM	32 µM	32 µM	> 64 µM	> 64 µM	>64 (>64) µM	>64 (>64) µM	57.02 µM	53.82 µM	> 64 µM	> 64 µM	–	MIC S. aureus (S. aureus): 25 µM; MIC E. coli (E. coli): 12.5 µM; MIC Acinetobacter nosocomial Ab113 [1]: 128 µg/mL; MIC Helicobacter pylori (Helicobacter pylori): 1 µg/mL
KIAKGALKALKIAKVALKAL-NH2 (C-terminus assumed) [kiadin-2]	8 µM	4 µM	32 µM	4 µM	4 µM	32 µM	32 µM	32 (32) µM	32 (32) µM	8.98 µM	4.76 µM	16 µM	8 µM	2–8 times	–
KIAKVALKAL-NH2 (C-terminus assumed) [PGLa-H]	> 128 µM	> 128 µM	128 µM	> 128 µM	> 128 µM	> 128 µM	> 128 µM	>128 (>128) µM	>128 (>128) µM	128 µM	128 µM	> 128 µM	> 128 µM	–	PI-DNA fluorescence intensity [2]: relatively constant PI-DNA fluorescence intensity; MIC S. aureus ATCC 25923 (S. aureus ATCC 25923): 8.7 µg/mL; MIC E. coli ATCC25922 (E. coli ATCC 25922): 23.6 µg/mL; outer membrane permeability (NPN uptake) [3]: failed to exhibit any discernible outer membrane permeability
KIAKVALKALKIAKGALKAL-NH2 (C-terminus assumed) [kiadin-1]	16 µM	8 µM	22.63 µM	4 µM	4 µM	16 µM	16 µM	32 (32) µM	32 (32) µM	14.25 µM	11.31 µM	64 µM	32 µM	2–8 times	MIC Pseudomonas aeruginosa ATCC 25922 (Pseudomonas aeruginosa; [4]): 6 µM; MIC Pseudomonas aeruginosa ATCC 25922 (Pseudomonas aeruginosa; [5]): > 32 µg/mL; MIC MRSA (MRSA; [4]): 3 µM; MIC MRSA (MRSA; [5]): 16 µg/mL

Reference: publication PMC11921344, “Antimicrobial peptide DiPGLa-H exhibits the most outstanding anti-infective activity among the PGLa variants based on a systematic comparison” (Applied and Environmental Microbiology, 2025)
